Measurements taken from the NIST ThermoML archive (doi:10.1016/j.fluid.2011.03.005).
Numbers after ± are expanded uncertainties.

Legend:
[1] = for mass density: 101.33 kPa, Liquid, Vibrating tube method
[2] = Molar enthalpy of transition or fusion; conditions: Crystal; DSC

CCC[N+]1(C)CCCCC1.O=S(=O)([N-]S(=O)(=O)C(F)(F)F)C(F)(F)F
[1]
Conditions	mass density [kg/m3]
293.15 K	1414.1 ± 0.6
298.15 K	1409.6 ± 0.6
303.15 K	1405.3 ± 0.6
308.15 K	1401 ± 0.6
313.15 K	1396.6 ± 0.6
318.15 K	1392.3 ± 0.6
323.15 K	1388 ± 0.6
328.15 K	1383.7 ± 0.6
333.15 K	1379.4 ± 0.6
338.15 K	1375.1 ± 0.6
343.15 K	1370.9 ± 0.6
348.15 K	1366.6 ± 0.6
353.15 K	1362.3 ± 0.5
358.15 K	1358.1 ± 0.5
363.15 K	1353.9 ± 0.5

Conditions	Normal melting temperature [°C]
[1], Crystal, DTA	12.6 ± 0.4

Conditions	Molar enthalpy of transition or fusion [kcal/mol]
[2]	6.12 ± 0.167
